Measured values reported in patent US4125610A, “Antibacterial compositions” (priority 1977, dated 1978).
In brackets after ≈: the same amount, converted by molar mass. Where two headings read alike, the source gives them in different places.

Experiments:
E. coli [1] = test: microbe, parasite or virus in culture; type: cell-based; settings: Escherichia coli
Description: (§1) *The MIC's were determined by the twofold broth dilution method following
(§2) overnight incubation at 37° C in Meuller-Hinton Broth containing 2
(§3) lysed defibrinated horse blood and using 10^-4 dilutions of overnight
(§4) broth cultures (10^-3 dilutions of Staph. aureus strains A9606 and
(§5) A15097) as inocula at the rate of 0.5 ml of inoculum per 0.5 ml of […]

Ent. cloacae [2] = test: microbe, parasite or virus in culture; type: cell-based; settings: Enterobacter cloacae
Description: as §1, §2, §3, §4, §5

Kl. pneumoniae [3] = test: microbe, parasite or virus in culture; type: cell-based; settings: Klebsiella pneumoniae
Description: as §1, §2, §3, §4, §5

Pr. mirabilis [4] = test: microbe, parasite or virus in culture; type: cell-based
Description: as §1, §2, §3, §4, §5

Ps. aeruginosa = test: microbe, parasite or virus in culture; type: cell-based; settings: Pseudomonas aeruginosa
Description: as §1, §2, §3, §4, §5

Staph. aureus [5] = test: microbe, parasite or virus in culture; type: cell-based
Description: as §1, §2, §3, §4, §5

A20119 = test: Antibacterial activity, MIC by twofold broth dilution (Table 1), organism name not given; type: cell-based
Description: as §1, §2, §3, §4, §5

E. coli [6] = test: microbe, parasite or virus in culture; type: cell-based; settings: Escherichia coli; remark: listed apart in the source
Description: (§6) The geometric mean MIC's were determined from MIC's obtained in two separate tests of each of the strains of Staphylococcus and Proteus, and three separate tests for each of the other organisms.

Ent. cloacae [7] = test: microbe, parasite or virus in culture; type: cell-based; settings: Enterobacter cloacae; remark: listed apart in the source
Description: as §6

Kl. pneumoniae [8] = test: microbe, parasite or virus in culture; type: cell-based; settings: Klebsiella pneumoniae; remark: listed apart in the source
Description: as §6

Pr. mirabilis [9] = test: microbe, parasite or virus in culture; type: cell-based; settings: Proteus mirabilis
Description: as §6

Pr. morganii = test: microbe, parasite or virus in culture; type: cell-based; settings: Morganella morganii
Description: as §6

Pr. rettgeri = test: microbe, parasite or virus in culture; type: cell-based; settings: Providencia rettgeri
Description: as §6

Pr. vulgaris = test: microbe, parasite or virus in culture; type: cell-based; settings: for MIC: Proteus vulgaris
Description: as §6

Staph. aureus [10] = test: microbe, parasite or virus in culture; type: cell-based; settings: Staphylococcus aureus, read-out: Geometric Mean MIC
Description: as §6

S. aureus A9537 = test: animal or person; type: in vivo, mice; settings: Staphylococcus aureus, A9537, in Mus musculus, po
S. pyogenes A9604 = test: animal or person; type: in vivo, mice; settings: Streptococcus pyogenes, A9604, in Mus musculus, po, read-out: PD50 /treatment
E. coli A15119 = test: animal or person; type: in vivo, mice; settings: Escherichia coli, A15119, in Mus musculus, po, read-out: PD50 /treatment
K. pneumoniae A9977 = test: animal or person; type: in vivo, mice; settings: Klebsiella pneumoniae, A9977, in Mus musculus, po, read-out: PD50 /treatment
P. mirabilis A9900 = test: animal or person; type: in vivo, mice; settings: Proteus mirabilis, A9900, in Mus musculus, po
[11] = laboratory animals, cited from earlier work
[12] = test system: experimental tuberculosis; settings: cited from earlier work
[13] = test system: experimental tuberculosis; settings: cited from earlier work; remark: listed apart in the source
Histoplasma capsulatum = settings: mouse, in vivo, iv; cited from earlier work
[14] = test system: a variety of bacterial species; settings: cited from earlier work
S. typhosa = settings: in vivo; cited from earlier work
Ps. fluorescens = settings: in vivo; cited from earlier work
Plasmodium berghei = settings: in vivo; cited from earlier work

Nc1ccc(P(=O)(O)O)cc1 [P, p-aminophenylphosphonic acid]
MIC (E. coli [1]): > 125 µg/mL
MIC (E. coli [1]; strain A15119): > 125 µg/mL
MIC (E. coli [1]; strain A-9671): > 125 µg/mL
MIC (Ent. cloacae [2]; strain A-9656): > 125 µg/mL
MIC (Ent. cloacae [2]; strain A-9657): 63 µg/mL (≈ 364 µM)
MIC (Ent. cloacae [2]; strain A-9659): > 125 µg/mL
MIC (Kl. pneumoniae [3]): > 125 µg/mL
MIC (Kl. pneumoniae [3]; strain A15130): > 125 µg/mL
MIC (Kl. pneumoniae [3]; strain A20468): > 125 µg/mL
MIC (Pr. mirabilis [4]; Proteus mirabilis): > 125 µg/mL
MIC (Pr. mirabilis [4]; Proteus mirabilis, strain A-9696): > 125 µg/mL
MIC (Ps. aeruginosa; strain A15151): 1 µg/mL (≈ 5.78 µM)
MIC (Ps. aeruginosa; strain A20126): 16 µg/mL (≈ 92.4 µM)
MIC (Ps. aeruginosa; strain A20227): 1 µg/mL (≈ 5.78 µM)
MIC (Ps. aeruginosa; strain A20229): 63 µg/mL (≈ 364 µM)
MIC (Ps. aeruginosa; strain A20543): 16 µg/mL (≈ 92.4 µM)
MIC (Ps. aeruginosa; strain A20574): 1 µg/mL (≈ 5.78 µM)
MIC (Ps. aeruginosa; strain A20602): 125 µg/mL (≈ 722 µM)
MIC (Ps. aeruginosa; strain A-9843a): 4 µg/mL (≈ 23.1 µM)
MIC (Ps. aeruginosa; strain A-9925): 16 µg/mL (≈ 92.4 µM)
MIC (Staph. aureus [5]; Staphylococcus aureus): > 125 µg/mL
MIC (Staph. aureus [5]; strain A15097, 10^-3 dilution inoculum): > 125 µg/mL
MIC (Staph. aureus [5]; strain A-9606, 10^-3 dilution inoculum): > 125 µg/mL
MIC (A20119): > 125 µg/mL
MIC (E. coli [6]; read-out: Geometric Mean MIC, 1 strain (1st E. coli line)): 6.4 µg/mL (≈ 37 µM)
MIC (E. coli [6]; read-out: Geometric Mean MIC, 2 strains (2nd E. coli line)): 18 µg/mL (≈ 104 µM)
MIC (E. coli [6]; read-out: Geometric Mean MIC, 2 strains (3rd E. coli line)): > 125 µg/mL
MIC (E. coli [6]; read-out: Geometric Mean MIC, 4 strains (4th E. coli line)): 20 µg/mL (≈ 116 µM)
MIC (Ent. cloacae [7]; read-out: Geometric Mean MIC, 1 strain (1st Ent. cloacae line)): 8 µg/mL (≈ 46.2 µM)
MIC (Ent. cloacae [7]; read-out: Geometric Mean MIC, 1 strain (3rd Ent. cloacae line)): > 125 µg/mL
MIC (Ent. cloacae [7]; read-out: Geometric Mean MIC, 2 strains (4th Ent. cloacae line)): 63 µg/mL (≈ 364 µM)
MIC (Ent. cloacae [7]; read-out: Geometric Mean MIC, 3 strains (2nd Ent. cloacae line)): 20 µg/mL (≈ 116 µM)
MIC (Kl. pneumoniae [8]; read-out: Geometric Mean MIC, 1 strain (2nd Kl. pneumoniae line)): 40 µg/mL (≈ 231 µM)
MIC (Kl. pneumoniae [8]; read-out: Geometric Mean MIC, 1 strain (4th Kl. pneumoniae line)): > 125 µg/mL
MIC (Kl. pneumoniae [8]; read-out: Geometric Mean MIC, 2 strains (3rd Kl. pneumoniae line)): 40 µg/mL (≈ 231 µM)
MIC (Kl. pneumoniae [8]; read-out: Geometric Mean MIC, 5 strains (1st Kl. pneumoniae line)): 18 µg/mL (≈ 104 µM)
MIC (Pr. mirabilis [9]; read-out: Geometric Mean MIC, 1 strain (3rd Pr. mirabilis line)): 11.3 µg/mL (≈ 65.3 µM)
MIC (Pr. mirabilis [9]; read-out: Geometric Mean MIC, 1 strain (4th Pr. mirabilis line)): 16 µg/mL (≈ 92.4 µM)
MIC (Pr. mirabilis [9]; read-out: Geometric Mean MIC, 2 strains (2nd Pr. mirabilis line)): > 105 µg/mL
MIC (Pr. mirabilis [9]; read-out: Geometric Mean MIC, 4 strains (1st Pr. mirabilis line)): 7.3 µg/mL (≈ 42.2 µM)
MIC (Pr. morganii; read-out: Geometric Mean MIC, 1 strain (1st Pr. morganii line)): > 125 µg/mL
MIC (Pr. morganii; read-out: Geometric Mean MIC, 2 strains (2nd Pr. morganii line)): 11.3 µg/mL (≈ 65.3 µM)
MIC (Pr. rettgeri; read-out: Geometric Mean MIC, 1 strain (1st Pr. rettgeri line)): 0.5 µg/mL (≈ 2.89 µM)
MIC (Pr. rettgeri; read-out: Geometric Mean MIC, 1 strain (2nd Pr. rettgeri line)): > 125 µg/mL
MIC (Pr. vulgaris; read-out: Geometric Mean MIC, 1 strain (first listed Pr. vulgaris)): > 125 µg/mL
MIC (Pr. vulgaris; read-out: Geometric Mean MIC, 2 strains (2nd Pr. vulgaris line)): 8 µg/mL (≈ 46.2 µM)
component in the 16:1 mixture at its MIC as % of its individual MIC (Pr. vulgaris; first listed strain of Pr. vulgaris): < 3.0%
amount of component in 4 μg/ml of the 16:1 mixture (Pr. vulgaris; first listed strain of Pr. vulgaris, 16:1 mixture at its MIC): 3.76 µg/mL
MIC (Staph. aureus [10]): > 109 µg/mL
ED50 (S. aureus A9537; read-out: PD50 /treatment): > 400 mg/kg
ED50 (S. aureus A9537; read-out: PD50 /treatment, oral, mice, challenge 1×10^5, 0 and 4 hr post-challenge): > 100 mg/kg
ED50 (S. pyogenes A9604): > 400 mg/kg
ED50 (E. coli A15119; 3 h): > 400 mg/kg
ED50 (E. coli A15119): > 400 mg/kg
ED50 (K. pneumoniae A9977; 54 h): > 400 mg/kg
ED50 (K. pneumoniae A9977): > 400 mg/kg
ED50 (P. mirabilis A9900; read-out: PD50 /treatment, oral, mice, challenge 6×10^6, 0 and 2 hr post-challenge): > 200 mg/kg
ED50 (P. mirabilis A9900; read-out: PD50 /treatment, oral, mice, challenge 8×10^6, 0 and 2 hr post-challenge (1st P. mirabilis line)): > 800 mg/kg
ED50 (P. mirabilis A9900; read-out: PD50 /treatment, oral, mice, challenge 8×10^6, 0 and 2 hr post-challenge (3rd P. mirabilis line)): > 200 mg/kg
absorption ([11]; blood level studies): poor absorption
toxicity [11]: low toxicity
tubercularstatic activity in vitro [12]: good tubercularstatic activity in vitro
effect in vivo [13]: no effect in vivo
protective effect (Histoplasma capsulatum): some protective effect
in vitro activity compared with sulfathiazole ([14]; molar basis): approached that of sulfathiazole
in vitro activity ([14]; relative to the compounds tested): generally the most active of the compounds tested
efficacy in infected mice (S. typhosa): effective in vivo
efficacy in infected mice (Ps. fluorescens): effective in vivo
efficacy in infected mice (Plasmodium berghei): effective in vivo

COc1cc(Cc2cnc(N)nc2N)cc(OC)c1OC [T, 2,4-diamino-5-(3',4',5'-trimethoxybenzyl)pyrimidine]
MIC (Pr. mirabilis [4]): 4 µg/mL (≈ 13.8 µM)
MIC (Pr. mirabilis [4]; Proteus mirabilis): 2 µg/mL (≈ 6.89 µM)
MIC (Staph. aureus [5]; Staphylococcus aureus): 0.25 µg/mL (≈ 0.861 µM)
MIC (A20119): 16 µg/mL (≈ 55.1 µM)
Geometric Mean MIC (Pr. vulgaris): 0.6 µg/mL
amount of component in 4 μg/ml of the 16:1 mixture (Pr. vulgaris): 0.235 µg/mL
component in the 16:1 mixture at its MIC as % of its individual MIC (Pr. vulgaris): 23%
MIC (Pr. vulgaris; read-out: Geometric Mean MIC): 1 µg/mL (≈ 3.44 µM)
MIC (Staph. aureus [10]): 0.5 µg/mL (≈ 1.72 µM)
ED50 (S. pyogenes A9604): > 400 mg/kg
ED50 (E. coli A15119; 3 h): 200 mg/kg
ED50 (E. coli A15119): 262 mg/kg
ED50 (K. pneumoniae A9977; 54 h): 348 mg/kg
ED50 (P. mirabilis A9900; read-out: PD50 /treatment): > 200 mg/kg
